In patent US10336746B1, “RAD51 inhibitors” (Cyteir Therapeutics, Inc., priority 2017, dated 2019):
pEC50: −log10 of the molar value. Where two headings read alike, the source gives them in different places.

Key:
[1] = tested on: Daudi cell line (AID positive); assay: Primary screening cell killing assay, Daudi cell line (AID positive); assay type: cell-based; conditions: Homo sapiens, 168 h, cell death on Day 7, Cell-Titer Glo
Description: Primary screening was a phenotypic screen that utilized the synthetic lethal interaction between AID and RAD51 to identify compounds that were both potent and on target. AID expressing cells are dependent upon RAD51 for survival; inhibiting RAD51 in AID positive cells results in a cytotoxic effect.
The first step was to set up a cell killing assay in the Daudi cell line (AID positive). A 96 well u-bottom plate was prepared by writing the experiment number, plate number, date and initials in the top right corner of the plate lid. With a sterile 300 ml reservoir, and 25 ml serological pipette, evaporation buffer media was pipetted into reservoir in 25 ml increments. Using the liquid handler, 150 ul of evaporation buffer media was pipetted from reservoir into rows A and H, and Columns 1 and 12 of the 96 well u-bottom plate. Cell cultures were counted to obtain the density of cells per ml, and the culture viability. The cell density information was used to obtain 1,000,000 cells from culture using a 5 mL serological pipette into an epi tube. The cell density information from the culture was used to calculate the number of cells and volume of media needed for the assay to seed 1250 cells in 130 ul of media per available culture well in the 96 well u-bottom plate. Rows B through F were used for cells (50 wells in total), with row G left for an empty media control. The calculation was overestimated by 10 mL to account for the dead volume in the 300 ml reservoir. Once the media volume was calculated, the appropriate volume of media was pipetted in 25 mL increments into the 250 mL bottle using a 25 mL serological pipette. The 250 ml bottle was capped tightly, and placed into a 37° C. water bath for 2 minutes. While the culture media was warming, 10 mL of fresh media was pipetted from the 500 mL culture media bottle into a sterile 25 mL reservoir. Using the Eppendorf multichannel pipette, 130 ul of media was pipetted from the 25 mL reservoir into row G of the 96 well u-bottom plate. Once the 250 mL bottle of media was warmed, the volume of culture needed was pipetted into the bottle, and mixed gently with a 25 mL serological pipette as to not create bubbles, and then the contents of the bottle were pipetted into a new 300 mL reservoir. Using the liquid handler, 130 ul of culture was pipetted from the 300 mL reservoir into rows B through F of the 96 well u-bottom plate. Once the culture was added, the plate was placed into a 37° C. incubator until the compound master plate was prepared for use.
Two 96 well u-bottom plates were prepared by writing the master plate name in the upper right corner of the plate lid. Labeling one DMSO master and the other Media Master. The compounds of interest were obtained from the laboratory freezer, and placed into a 25 well storage box with a lid, and set the box aside. The compounds were vortexed after thawing but before use. Using an automatic multichannel pipette, 20 ul of 100% DMSO was pipetted into wells B3-B11 through G3-G11 of the DMSO master plate. For each compound on the master plate, 50 ul of the compound were pipetted in the appropriate well of row 2 (reference plate map to determine appropriate well). A serial dilution was prepared beginning by aspirating 20 ul from row 2 and mixing with row 3, repeating until row 11 was reached. Using the liquid handler, 194 ul of Daudi media was dispensed into wells B2-B11 through G2-G11 of the Media master plate. Using the liquid handler, 6 ul from the DMSO master plate was aspirated and dispensed into the media master plate, mixing 100 ul twice.
Compounds from master plate were then added to the culture plate. The culture plates were removed from the incubator, and set inside the biosafety cabinet. Using a liquid handler, 20 ul from wells B2 to B11 through G2 to G11 of master plate were aspirated, and dispensed into wells B2 to B11 through G2 to G11 of culture plate. This set was continued with each culture plate. […]

[2] = Bi-directional Caco-2 permeability; assay type: in vitro ADME; conditions: human
Description: Bi-directional Caco-2 permeability was assayed. Caco-2 cells were seeded onto permeable polycarbonate supports and allowed to differentiate for about 3 weeks prior to being used in the assays. The cells were then exposed to the compounds from either the apical or basolateral sides and incubated at 37 C for up to 90 minutes under light agitation. Compound transport was then measured using LC/MS/MS analysis at 30, 60, and 90 minutes.

SMILES	pEC50 [1]	also measured
CC(C)OC(=O)Nc1ccc(-c2cnc([C@@H]3CC[C@@H](NC(=O)OC(C)C)CN3)s2)c(S(=O)(=O)NC(C)(C)C)c1 (relative stereo) [Ex. 63, trans-isopropyl N-[6-[5-[2-(tert-butylsulfamoyl)-4-(isopropoxycarbonylamino)phenyl]thiazol-2-yl]-3-piperidyl]carbamate]	6.00 to 7.00	recovery at 90 min ([2]; Caco-2, Caco-2, AB direction, read-out: AB Recovery %): 83.6%; recovery at 90 min ([2]; Caco-2, Caco-2, BA direction, read-out: BA Recovery %): 90%; efflux ratio at 90 min ([2]; Caco-2, read-out: BA/AB Ratio): 2.5; Papp A→B at 90 min ([2]; Caco-2, apical to basolateral, 37 C, up to 90 minutes, read-out: AB Papp (cm/sec × 10^6)): 10.5 ×10⁻⁶ cm/s; Papp B→A at 90 min ([2]; Caco-2, basolateral to apical, 37 C, up to 90 minutes, read-out: BA Papp (cm/sec × 10^6)): 26.7 ×10⁻⁶ cm/s
CN1CCC[C@H]1COC(=O)Nc1ccc(-c2cnc(N3CCC(OC(=O)NCc4ccccc4)CC3)s2)c(S(=O)(=O)NC(C)(C)C)c1 [Ex. 1, (S)-(1-methylpyrrolidin-2-yl)methyl (4-(2-(4-((benzylcarbamoyl)oxy)piperidin-1-yl)thiazol-5-yl)-3-(N-(tert-butyl)sulfamoyl)phenyl)carbamate]	< 6.00	
CN1CCC[C@@H]1COC(=O)Nc1ccc(-c2cnc(N3CCC(OC(=O)NCc4ccccc4)CC3)s2)c(S(=O)(=O)NC(C)(C)C)c1 [Ex. 2, [1-[5-[2-(tert-butylsulfamoyl)-4-[[(2R)-1-methylpyrrolidin-2-yl]methoxycarbonylamino]phenyl]thiazol-2-yl]-4-piperidyl] N-benzylcarbamate]	< 6.00	
CC(C)OC(=O)N1CCN(c2ncc(-c3ccc(NC(=O)OCc4ccccc4)cc3S(=O)(=O)NC(C)(C)C)s2)CC1 [Ex. 6, isopropyl 4-[5-[4-(benzyloxycarbonylamino)-2-(tert-butylsulfamoyl)phenyl]thiazol-2-yl]piperazine-1-carboxylate]	< 6.00	
CC(C)OC(=O)Nc1ccc(-c2cnc(C3CCC(NC(=O)OC[C@H]4CCCN4C)CC3)s2)c(S(=O)(=O)NC(C)(C)C)c1 (stereo partly drawn) [Ex. 8, [(2R)-1-methylpyrrolidin-2-yl]methyl N-[4-[5-[2-(tert-butylsulfamoyl)-4-(isopropoxycarbonylamino)phenyl]thiazol-2-yl]cyclohexyl]carbamate]	< 6.00	
CC(C)OC(=O)Nc1ccc(-c2cnc(C3CCC(NC(=O)OC[C@@H]4CCCN4C)CC3)s2)c(S(=O)(=O)NC(C)(C)C)c1 (stereo partly drawn) [Ex. 9, isopropyl (3-(N-(tert-butyl)sulfamoyl)-4-(2-((1S,4r)-4-(((((S)-1-methylpyrrolidin-2-yl)methoxy)carbonyl)amino)cyclohexyl)thiazol-5-yl)phenyl)carbamate]	6.00 to 7.00	
CN1CCC[C@@H]1COC(=O)NC1CCC(c2ncc(-c3ccc(NC(=O)NCc4ccccc4)cc3S(=O)(=O)NC(C)(C)C)s2)CC1 (stereo partly drawn) [Ex. 11, [(2R)-1-methylpyrrolidin-2-yl]methyl N-[4-[5-[4-(benzylcarbamoylamino)-2-(tert-butylsulfamoyl)phenyl]thiazol-2-yl]cyclohexyl]carbamate]	6.00 to 7.00	
CN1CCC[C@H]1COC(=O)N[C@H]1CC[C@H](c2ncc(-c3ccc(NC(=O)NCc4ccccc4)cc3S(=O)(=O)NC(C)(C)C)s2)CC1 [Ex. 12, ((S)-1-methylpyrrolidin-2-yl)methyl ((1r,4S)-4-(5-(4-(3-benzylureido)-2-(N-(tert-butyl)sulfamoyl)phenyl)thiazol-2-yl)cyclohexyl)carbamate]	6.00 to 7.00	
CC(C)OC(=O)N[C@H]1CC[C@H](c2ncc(-c3ccc(NC(=O)NCc4ccncc4)cc3S(=O)(=O)NC(C)(C)C)s2)CC1 [Ex. 22, trans-isopropyl N-[4-[5-[2-(tert-butylsulfamoyl)-4-(4-pyridylmethylcarbamoylamino)phenyl]thiazol-2-yl]cyclohexyl]carbamate]	6.00 to 7.00	
CC(C)OC(=O)N[C@H]1CC[C@H](c2ncc(-c3ccc(NC(=O)NCc4ccc(F)cc4)cc3S(=O)(=O)NC(C)(C)C)s2)CC1 [Ex. 23, isopropyl ((1r,4r)-4-(5-(2-(N-(tert-butyl)sulfamoyl)-4-(3-(4-fluorobenzyl)ureido)phenyl)thiazol-2-yl)cyclohexyl)carbamate]	≥ 7.00	
CC(C)OC(=O)N[C@H]1CC[C@H](c2ncc(-c3ccc(NC(=O)NCc4cccnc4)cc3S(=O)(=O)NC(C)(C)C)s2)CC1 [Ex. 25, isopropyl ((1r,4r)-4-(5-(2-(N-(tert-butyl)sulfamoyl)-4-(3-(pyridin-3-ylmethyl)ureido)phenyl)thiazol-2-yl)cyclohexyl)carbamate]	≥ 7.00	
CC(C)OC(=O)N[C@H]1CC[C@H](c2ncc(-c3ccc(NC(=O)OCC4CCNCC4)cc3S(=O)(=O)NC(C)(C)C)s2)CC1 [Ex. 33, trans-4-piperidylmethyl N-[3-(tert-butylsulfamoyl)-4-[2-[4-(isopropoxycarbonylamino)cyclohexyl]thiazol-5-yl]phenyl]carbamate]	< 6.00	
CC(C)OC(=O)NC1CCC(c2ncc(-c3ccc(NC(=O)OC[C@H]4CCCN4)cc3S(=O)(=O)NC(C)(C)C)s2)CC1 (stereo partly drawn) [Ex. 36, isopropyl ((1R,4r)-4-(5-(2-(N-(tert-butyl)sulfamoyl)-4-(((((R)-pyrrolidin-2-yl)methoxy)carbonyl)amino)phenyl)thiazol-2-yl)cyclohexyl)carbamate]	6.00 to 7.00	
CC(C)OC(=O)NC1CCC(c2ncc(-c3ccc(NC(=O)OC[C@@H]4CCCN4)cc3S(=O)(=O)NC(C)(C)C)s2)CC1 (stereo partly drawn) [Ex. 37, isopropyl ((1S,4r)-4-(5-(2-(N-(tert-butyl)sulfamoyl)-4-(((((S)-pyrrolidin-2-yl)methoxy)carbonyl)amino)phenyl)thiazol-2-yl)cyclohexyl)carbamate]	6.00 to 7.00	
COc1cc(NC(=O)OC(C)C)cnc1-c1ncc(-c2ccc(NC(=O)OCC3CCNCC3)cc2S(=O)(=O)NC(C)(C)C)s1 [Ex. 56, 4-piperidylmethyl N-[3-(tert-butylsulfamoyl)-4-[2-[5-(isopropoxycarbonylamino)-3-methoxy-2-pyridyl]thiazol-5-yl]phenyl]carbamate]	6.00 to 7.00	
CC(C)OC(=O)N[C@H]1CC[C@@H](c2ncc(-c3ccc(NC(=O)NCc4ccccc4)cc3S(=O)(=O)NC(C)(C)C)s2)CC1 [Ex. 66B, cis-isopropyl N-[4-[5-[4-(benzylcarbamoylamino)-2-(tert-butylsulfamoyl)phenyl]thiazol-2-yl]cyclohexyl]carbamate]	6.00 to 7.00	
CC(C)OC(=O)Nc1ccc(-c2cnc([C@H]3CC[C@@H](NC(=O)OC(C)C)CC3)s2)c(S(=O)(=O)NC(C)(C)C)c1 [Ex. 67B, cis-isopropyl N-[3-(tert-butylsulfamoyl)-4-[2-[4-(isopropoxycarbonylamino)cyclohexyl]thiazol-5-yl]phenyl]carbamate]	< 6.00	
CC(C)OC(=O)NC1CCN(c2ncc(-c3ccc(NC(=O)NCc4ccccc4)cc3S(=O)(=O)NC(C)(C)C)s2)CC1 [Ex. 68, isopropyl N-[1-[5-[4-(benzylcarbamoylamino)-2-(tert-butylsulfamoyl)phenyl]thiazol-2-yl]-4-piperidyl]carbamate]	6.00 to 7.00	
CC(C)OC(=O)Nc1ccc(-c2cnc(N3CCC(NC(=O)OC(C)C)CC3)s2)c(S(=O)(=O)NC(C)(C)C)c1 [Ex. 69, isopropyl N-[1-[5-[2-(tert-butylsulfamoyl)-4-(isopropoxycarbonylamino)phenyl]thiazol-2-yl]-4-piperidyl]carbamate]	< 6.00	
